The NIST ThermoML archive (doi:10.1016/j.fluid.2005.11.013)

Assay: wn = mass fraction of the nth substance listed
Settings: Liquid; for mass density: Other PVT measurement; for viscosity: 17000 kPa, high pressure falling cylinger viscometer

CC(=O)OC[C@H]1O[C@@H](OC(C)=O)[C@H](OC(C)=O)[C@@H](OC(C)=O)[C@H]1OC(C)=O [β-D-galactose pentaacetate] + O=C=O
mass density [kg/m3]
Settings	w1 = 0.206	w1 = 0.259
308 K, 10600 kPa	930	990
308 K, 11000 kPa	–	1000
308 K, 11400 kPa	940	–
308 K, 11700 kPa	–	1010
308 K, 12300 kPa	950	–
308 K, 12400 kPa	–	1020
308 K, 13300 kPa	–	1030
308 K, 13700 kPa	960	–
308 K, 14900 kPa	–	1040
308 K, 15000 kPa	970	–
308 K, 15500 kPa	970	–
308 K, 17100 kPa	–	1060
313 K, 11900 kPa	–	970
313 K, 12100 kPa	940	–
313 K, 12600 kPa	–	980
313 K, 12700 kPa	940	–
313 K, 13300 kPa	–	980
313 K, 13600 kPa	950	–
313 K, 14200 kPa	–	990
313 K, 15100 kPa	960	1000
313 K, 15800 kPa	–	1010
313 K, 16200 kPa	970	–
313 K, 17300 kPa	–	1020
313 K, 17500 kPa	980	–
313 K, 18500 kPa	980	–
313 K, 19400 kPa	980	–
313 K, 19800 kPa	–	1040
318 K, 14400 kPa	930	–
318 K, 15100 kPa	940	–
318 K, 15900 kPa	940	–
318 K, 16700 kPa	950	–
318 K, 17900 kPa	960	–
318 K, 20300 kPa	970	–
323 K, 15500 kPa	930	–
323 K, 16000 kPa	940	–
323 K, 16600 kPa	940	–
323 K, 17700 kPa	950	–
323 K, 18900 kPa	960	–

318 K
Settings	viscosity [mPa·s]
w1 = 0.18	0.095
w1 = 0.25	0.103
